Patent US5508301A, “Ketorolac derivatives with considerably reduced gastro-intestinal irritation and ulceration” (Roemmers S.A.I.C.F., priority 1993, dated 1996)
Structures can show the parent of a compound that is named as a salt. Where two headings read alike, the source gives them in different places.

Key:
[1] = Comparison tests as regards the undesired side effects, overall statement; details: test not shown in the table; compared with 2-(1-pyrrolidinyl)ethyl ester
rat = details: LD50, species not stated in the sentence itself
in vivo [2] = details: rat, po
in vivo [3] = details: mouse, po, read-out: Acute Toxicity p.o. LD50 (mg/kg) in the mouse
[4] = Antipyretic effect: temperature increase by beer yeast, rectal temperature, oral administration; type: in vivo; details: p.o., rat, rectal temperature 5, 6, 7 and 8 hours after administration, read-out: Antipyretic Effect p.o. of 50
Experimental: (§1) The antipyretic effect was determined by increasing the rat's temperature by means of beer yeast by 20% and the rectal temperature of the rat was measured 5, 6, 7 and 8 hours after the administration. The percentage of increase compared to the comparison sample was measured.

[5] = rat, in vivo
[6] = rat, in vivo; remark: listed apart in the source
[7] = rat, in vivo; remark: listed apart in the source
[8] = rat, in vivo; remark: listed apart in the source
Experimental: The ulceration effect was determined in three groups of 6 rats each. […] The ulceration effect was evaluated microscopically by means of an ulceration index which corresponds to the sum of evaluations of each animal, multiplied by the percentage of animals above null, divided by the total number of animals (0=normal; 1=minor haemorrhages; 2=considerable haemorrhages; 3=small ulcus; 4=large ulcus, more than 2 mm; 5=perforated ulcus).
The same animals were examined for the degree of injury probability of stomach tissue by means of a microscopic quantification of different degrees of lesions: no change, haemorrhages, necrosis.

[9] = Comparison tests as to the pharmacological effect (analgetic/antiphlogistic and antipyretic), overall statement; type: in vivo, rat; details: B compared with A; C compared with pyrrolidine ester
Experimental: The analgetic effect was measured by the test of inhibition of the contortions generated by peritoneal administration of 0.1 ml acetic acid (3%).
The antiinflammatory effect was evaluated by the Paw-Edema method in which carragenin (1%) was used and the percentage of the decrease of the volume increase was measured at the Paw of the rat.
as §1

| Compound | undesired side effects, in words [1] | acute toxicity, in words (rat) | acute toxicity, in words (rat; listed as ketorolac trometamole salt) | LD50 (in vivo [2]) | LD50 (in vivo [3]) | ED50 [4] | Possibility of Injuries of Stomach Tissue: animals with haemorrhages [5] | Possibility of Injuries of Stomach Tissue: animals with necrosis [5] | Possibility of Injuries of Stomach Tissue: animals without changes [5] | test of possible injuries of stomach tissue, in words [5] | destruction index of the gastric mucosa, in words [6] | acute toxicity, in words (rat; listed as oxalate of 2-(1-pyrrolidinyl)ethyl ester of ketorolac) | ulceration index relative to that detected with (A) [7] | undesired side effects compared with trometamole salt of ketorolac, in words [8] | ulceration index relative to that of 2-(1-pyrrolidinyl)ethyl ester [7] | pharmaceutical/pharmacological effect (analgetic/antiphlogistic and antipyretic), in words [9] |
| --- | --- | --- | --- | --- | --- | --- | --- | --- | --- | --- | --- | --- | --- | --- | --- | --- |
| O=C(c1ccccc1)c1ccc2n1CCC2C(=O)OCCN1CCCCC1 (centres unmarked) [2-(1-piperidinyl)ethyl ester] | the said advantages will not be obtained | – | – | – | – | – | – | – | – | – | – | – | – | – | – | – |
| O=C(c1ccccc1)c1ccc2n1CCC2C(=O)OCCN1CCOCC1 (centres unmarked) [2-(4-morpholinyl)ethyl ester] | the said advantages will not be obtained | – | – | – | – | – | – | – | – | – | – | – | – | – | – | – |
| O=C(c1ccccc1)c1ccc2n1CCC2C(=O)O (centres unmarked) [A] | – | acceptable acute toxicity | comparable and acceptable | 105 mg/kg | 118 mg/kg | ~3 mg/kg | 2 animals | 4 animals | 0 animals | all show haemorrhages or necrosis | – | – | – | – | – | – |
| O=C(c1ccccc1)c1ccc2n1CCC2C(=O)OCCN1CCCC1 (centres unmarked) [B, oxalate of 2-(1-pyrrolidinyl)ethyl ester of ketorolac] | – | acceptable acute toxicity | – | 235 mg/kg | 93 mg/kg | > 3 mg/kg | 0 animals | 0 animals | 6 animals | all animals remain unchanged | considerably lower than with (A) | comparable and acceptable | merely one third of that detected with (A) | considerably less undesired side effects than the trometamole salt of ketorolac | – | – |
| CCN(CC)CCOC(=O)C1CCn2c(C(=O)c3ccccc3)ccc21 (centres unmarked) [C, maleate of 2-(diethylamino)ethyl ester of ketorolac] | – | comparable and acceptable | – | – | 198 mg/kg | ~3 mg/kg | 0 animals | 5 animals | 1 animals | much greater with the former than with the latter | – | – | – | – | twice as high as that of 2-(1-pyrrolidinyl)ethyl ester | practically the same |
